# Literature values as cited in patent EP0975321B1, “THE USE OF THIOGLYCOLIC ACID AS DEPIGMENTING AGENT” (I.V. Pharma S.A.S., priority 1997, dated 1998).
# Conditions: Acidic strength; Table 1
row,Compound,pKa value
1,"O=C(O)CS [Tioglycolic acid, 2-mercaptoacetic acid]",3.68
2,O=C(O)C(Cl)(Cl)Cl [Trichloroacetic acid],0.70
